Results reported in patent US20260315434A1, “USE OF GUAIACOL SESQUITERPENE LACTONE DERIVATIVES” (NANJING UNIVERSITY OF CHINESE MEDICINE, priority 2023, published 2026).

Key:
[1] = Conversion (release) of prodrug salts to parent compound in HEPES buffer pH 7.4; type: in vitro ADME; conditions: for degraded at 1 h / degraded at 2 h / degraded at 4 h / degraded at 8 h / degraded at 12 h: hepes buffer, pH 7.4, HEPES pH 7.4, 37 °C, read-out: Release rate (conversion to Compound 1); for Release rate (conversion to Compound 1): HEPES pH 7.4, 37 °C
Protocol: (§1) Pharmaceutically acceptable salts of guaiane-type sesquiterpene lactone derivatives were selected and evaluated for their conversion rates to Compound 1 and Compound 83 in plasma and HEPES buffer, with results shown in Tables 2-1, 2-2, 3-1, and 3-2.
Experimental Method: Preparation of HEPES 7.4 Solution: Dissolve 1.6 g NaCl, 0.074 g KCl, 0.027 g Na2HPO4, 0.2 g glucose, and 1 g 4-(2-Hydroxyethyl)piperazine-1-ethanesulfonic acid (HEPES) solution in 90 mL distilled water. Adjust the pH to 7.4 using 0.5 M NaOH, then dilute to a final volume 100 mL with distilled water.
(§2) Sample Analysis: Dissolve 0.6 mg of the compound in 250 μL of deionized water separately. Add 250 μL of mouse serum or HEPES 7.4 solution to the sample, incubate at a constant temperature of 37° C., and collect samples at different time points. Pipette 20 μL of the sample to an EP tube, add 60 μL of methanol, vortex to mix thoroughly, and centrifuge at 12,000 rpm at 4° C. for 10 min. At 1 h, 2 h, 4 h, 8 h, and 12 h respectively, collect the supernatant for HPLC analysis. Inject 10 μL of sample and record the corresponding peak areas. Chromatographic conditions: Hanbang C18 column (4.6×250 mm, 5 μm); mobile phase: acetonitrile: […] ammonium formate solution=60:40; flow rate 1.0 mL/min; detection wavelength 210 nm; column temperature 30° C.

[2] = Conversion (release) of prodrug salts to parent compound in mouse plasma; type: in vitro ADME; conditions: 37 °C; for metabolised at 1 h / metabolised at 2 h / metabolised at 4 h / metabolised at 8 h / metabolised at 12 h: mouse, plasma, read-out: Release rate (conversion to Compound 1)
Protocol: as §1
Plasma Preparation: Collect mouse plasma into an EP tube pre-loaded with sodium heparin, centrifuge at 8000 rpm for 10 minutes at 4° C., and then collect the supernatant.
as §2

| degraded at 1 h ([1]; 1 h) | degraded at 2 h ([1]; 2 h) | degraded at 4 h ([1]; 4 h) | degraded at 8 h ([1]; 8 h) | degraded at 12 h ([1]; 12 h) | metabolised at 1 h ([2]; 1 h) | metabolised at 2 h ([2]; 2 h) | metabolised at 4 h ([2]; 4 h) | metabolised at 8 h ([2]; 8 h) | metabolised at 12 h ([2]; 12 h) | SMILES | Release rate (conversion to Compound 1) ([1]; 1 h, 60 min) | Release rate (conversion to Compound 1) ([1]; 2 h, 120 min) | Release rate (conversion to Compound 1) ([1]; 4 h, 240 min) | Release rate (conversion to Compound 1) ([1]; 8 h, 480 min) | Release rate (conversion to Compound 1) ([1]; 12 h, 720 min) | Release rate (conversion to Compound 1) ([2]; 1 h, 60 min) | Release rate (conversion to Compound 1) ([2]; 2 h, 120 min) | Release rate (conversion to Compound 1) ([2]; 4 h, 240 min) | Release rate (conversion to Compound 1) ([2]; 8 h, 480 min) | Release rate (conversion to Compound 1) ([2]; 12 h, 720 min) |
| --- | --- | --- | --- | --- | --- | --- | --- | --- | --- | --- | --- | --- | --- | --- | --- | --- | --- | --- | --- | --- |
| 6.8% | 16.1% | 27.3% | 43.5% | 55.6% | 7.8% | 17.1% | 29.3% | 48.5% | 65.6% | C[C@@]12CC[C@@H]3[C@H](OC(=O)[C@H]3CN3CCNCC3)[C@@H]3[C@]1(CC[C@@]3(C)O)C2 [Compound 26] |  |  |  |  |  |  |  |  |  |  |
| 6.9% | 15.4% | 27.4% | 42.2% | 54.8% | 7.9% | 17.4% | 28.4% | 48.2% | 59.1% | CCN1CCN(C[C@@H]2C(=O)O[C@H]3[C@H]2CC[C@@]2(C)C[C@]24CC[C@@](C)(O)[C@H]34)CC1 [Compound 27] |  |  |  |  |  |  |  |  |  |  |
| 6.8% | 14.5% | 24.4% | 40.4% | 50% | 6.8% | 14.5% | 24.4% | 40.4% | 49.1% | CCN(CC)C[C@@H]1C(=O)O[C@H]2[C@H]1CC[C@@]1(C)C[C@]13CC[C@@](C)(O)[C@H]23 [Compound 28] |  |  |  |  |  |  |  |  |  |  |
|  |  |  |  |  |  |  |  |  |  | CN(C)C[C@@H]1C(=O)O[C@H]2[C@H]1CC[C@@]1(C)C[C@]13CC[C@@](C)(O)[C@H]23 [Compound 40] | 6.8% | 14.6% | 26.2% | 44.0% | 50.2% | 6.7% | 14.2% | 26.8% | 44.0% | 52.6% |
|  |  |  |  |  |  |  |  |  |  | CN(C)C[C@@H]1C(=O)O[C@H]2[C@H]1CC[C@@]1(C)C[C@]13CC[C@@](C)(O)[C@H]23 [Compound 41] | 7.0% | 16.2% | 27.3% | 43.4% | 53.2% | 7.8% | 17.2% | 28.0% | 46.1% | 54.8% |
|  |  |  |  |  |  |  |  |  |  | CN(C)C[C@@H]1C(=O)O[C@H]2[C@H]1CC[C@@]1(C)C[C@]13CC[C@@](C)(O)[C@H]23 [Compound 42] | 7.0% | 15.0% | 25.2% | 42.8% | 52.3% | 6.3% | 14.2% | 26.2% | 41.0% | 47.2% |

| SMILES | degraded at 1 h ([1]; 1 h) | degraded at 2 h ([1]; 2 h) | degraded at 4 h ([1]; 4 h) | degraded at 8 h ([1]; 8 h) | degraded at 12 h ([1]; 12 h) | metabolised at 1 h ([2]; 1 h) | metabolised at 2 h ([2]; 2 h) | metabolised at 4 h ([2]; 4 h) | metabolised at 8 h ([2]; 8 h) | metabolised at 12 h ([2]; 12 h) | Release rate (conversion to Compound 1) ([1]; 1 h, 60 min) | Release rate (conversion to Compound 1) ([1]; 2 h, 120 min) | Release rate (conversion to Compound 1) ([1]; 4 h, 240 min) | Release rate (conversion to Compound 1) ([1]; 8 h, 480 min) | Release rate (conversion to Compound 1) ([1]; 12 h, 720 min) | Release rate (conversion to Compound 1) ([2]; 1 h, 60 min) | Release rate (conversion to Compound 1) ([2]; 2 h, 120 min) | Release rate (conversion to Compound 1) ([2]; 4 h, 240 min) | Release rate (conversion to Compound 1) ([2]; 8 h, 480 min) | Release rate (conversion to Compound 1) ([2]; 12 h, 720 min) |
| --- | --- | --- | --- | --- | --- | --- | --- | --- | --- | --- | --- | --- | --- | --- | --- | --- | --- | --- | --- | --- |
| C[C@@]12CC[C@@H]3[C@H](OC(=O)[C@H]3CN3CCCC3)[C@@H]3[C@]1(CC[C@@]3(C)O)C2 [Compound 22] | 6.4% | 14.8% | 26.6% | 41.3% | 53.7% | 7.4% | 16.8% | 27.6% | 46.3% | 57.7% |  |  |  |  |  |  |  |  |  |  |
| CN(C)C[C@@H]1C(=O)O[C@H]2[C@H]1CC[C@@]1(C)C[C@]13CC[C@@](C)(O)[C@H]23 [Compound 39] |  | 15% | 26.8% | 42.7% | 54.3% | 6.6% | 14% | 26.2% | 43.6% | 52.8% | 6.6% |  |  |  |  |  |  |  |  |  |
